What was measured:
[1] = Cmax in healthy man plasma at 500 mg, iv administered as 1 hr infusion by LC-MS/MS analysis; format: ADME, organism-based; set-up: dose 500 mg, route intravenous; settings: male, human
[2] = Half life in healthy man plasma at 500 mg, iv administered as 1 hr infusion by LC-MS/MS analysis; format: ADME, organism-based; settings: male, human
[3] = Elimination rate constant in plasma of healthy man dosed at 500 mg, iv administered as 1 hr infusion; format: ADME, organism-based; settings: male, human
[4] = Renal clearance in healthy man assessed as doripenem-M-1, dosed at 500 mg, iv administered as 1 hr infusion; format: ADME, organism-based, Kidney; settings: human, in vivo
[5] = Elimination rate constant in plasma of healthy man assessed as doripenem-M-1, dosed at 500 mg, iv administered as 1 hr infusion; format: ADME, organism-based; settings: human, in vivo
[6] = AUC (0 to infinity) in healthy man plasma at 500 mg, iv administered as 1 hr infusion by LC-MS/MS analysis; format: ADME, organism-based; set-up: dose 500 mg, time infinity, route intravenous; settings: male, human
[7] = Clearance in healthy man plasma at 500 mg, iv administered as 1 hr infusion by LC-MS/MS analysis; format: ADME, organism-based; settings: male, human
[8] = Cmax in healthy man plasma assessed as total compound-derived radioactivity at 500 mg, iv administered as 1 hr infusion by Liquid scintillation counting; format: ADME, organism-based; set-up: dose 500 mg, route intravenous; settings: human, in vivo
[9] = Tmax in healthy man plasma at 500 mg, iv administered as 1 hr infusion by LC-MS/MS analysis; format: ADME, organism-based; settings: male, human
[10] = AUC (last) in healthy man plasma assessed as doripenem-M-1 at 500 mg, iv administered as 1 hr infusion by LC-MS/MS analysis; format: ADME, organism-based; set-up: dose 500 mg, time 0 - last, route intravenous; settings: human, in vivo
[11] = Drug excretion in healthy man urine at 500 mg, iv administered as 1 hr infusion measured after 8 to 12 hrs by Liquid scintillation counting; format: ADME, organism-based; settings: human, in vivo
[12] = Drug excretion in healthy man urine at 500 mg, iv administered as 1 hr infusion measured after 0 to 12 hrs by Liquid scintillation counting; format: ADME, organism-based; settings: human, in vivo
[13] = Drug excretion in healthy man urine at 500 mg, iv administered as 1 hr infusion measured after 7 days by Liquid scintillation counting; format: ADME, organism-based; settings: human, in vivo
[14] = Tmax in healthy man plasma assessed as total compound-derived radioactivity at 500 mg, iv administered as 1 hr infusion by Liquid scintillation counting; format: ADME, organism-based; settings: human, in vivo
[15] = AUC (0 to infinity) in healthy man plasma assessed as doripenem-M-1 at 500 mg, iv administered as 1 hr infusion by LC-MS/MS analysis; format: ADME, organism-based; set-up: dose 500 mg, time infinity, route intravenous; settings: human, in vivo
[16] = AUC (last) in healthy man whole blood assessed as total compound-derived radioactivity at 500 mg, iv administered as 1 hr infusion by Liquid scintillation counting; format: ADME, organism-based; set-up: dose 500 mg, time 0 - last, route intravenous; settings: human, in vivo
[17] = Drug excretion in healthy man urine at 500 mg, iv administered as 1 hr infusion measured after 12 to 24 hrs by Liquid scintillation counting; format: ADME, organism-based; settings: human, in vivo
[18] = Renal clearance in healthy man dosed at 500 mg, iv administered as 1 hr infusion; format: ADME, organism-based, Kidney; settings: male, human, in vivo
[19] = AUC (last) in healthy man plasma at 500 mg, iv administered as 1 hr infusion by LC-MS/MS analysis; format: ADME, organism-based; set-up: dose 500 mg, time 0 - last, route intravenous; settings: male, human
[20] = AUC (last) in healthy man plasma assessed as total compound-derived radioactivity at 500 mg, iv administered as 1 hr infusion by Liquid scintillation counting; format: ADME, organism-based; set-up: dose 500 mg, time 0 - last, route intravenous; settings: human, in vivo
[21] = Tmax in healthy man plasma assessed as doripenem-M-1 at 500 mg, iv administered as 1 hr infusion by LC-MS/MS analysis; format: ADME, organism-based; settings: human, in vivo
[22] = Elimination rate constant in plasma of healthy man assessed as total compound-derived radioactivity, dosed at 500 mg, iv administered as 1 hr infusion; format: ADME, organism-based; settings: human, in vivo
[23] = Cmax in healthy man plasma assessed as doripenem-M-1 at 500 mg, iv administered as 1 hr infusion by LC-MS/MS analysis; format: ADME, organism-based; set-up: dose 500 mg, route intravenous; settings: human, in vivo
[24] = Drug excretion in healthy man urine at 500 mg, iv administered as 1 hr infusion measured after 4 hrs by Liquid scintillation counting; format: ADME, organism-based; settings: human, in vivo
[25] = Drug excretion in healthy man feces at 500 mg, iv administered as 1 hr infusion measured after 7 days by Liquid scintillation counting; format: ADME, organism-based; settings: human, in vivo
[26] = Drug excretion in healthy man urine at 500 mg, iv administered as 1 hr infusion measured after 4 to 8 hrs by Liquid scintillation counting; format: ADME, organism-based; settings: human, in vivo
[27] = Half life in healthy man plasma assessed as total compound-derived radioactivity at 500 mg, iv administered as 1 hr infusion by Liquid scintillation counting; format: ADME, organism-based; settings: human, in vivo
[28] = Tmax in healthy man whole blood assessed as total compound-derived radioactivity at 500 mg, iv administered as 1 hr infusion by Liquid scintillation counting; format: ADME, organism-based; settings: human, in vivo
[29] = Half life in healthy man plasma assessed as doripenem-M-1 at 500 mg, iv administered as 1 hr infusion by LC-MS/MS analysis; format: ADME, organism-based; settings: human, in vivo
[30] = AUC (0 to infinity) in healthy man plasma assessed as total compound-derived radioactivity at 500 mg, iv administered as 1 hr infusion by Liquid scintillation counting; format: ADME, organism-based; set-up: dose 500 mg, route intravenous, time infinity; settings: human, in vivo
[31] = Cmax in healthy man whole blood assessed as total compound-derived radioactivity at 500 mg, iv administered as 1 hr infusion by Liquid scintillation counting; format: ADME, organism-based; set-up: dose 500 mg, route intravenous; settings: human, in vivo

C[C@@H](O)[C@H]1C(=O)N2[C@@H]1[C@@H](C)C(S[C@@H]1CN[C@H](CNS(N)(=O)=O)C1)=[14C]2C(=O)O [[14C]-DORIPENEM]
Cmax [1]: 22900 ng/mL
half-life [2]: 1.07 h
k el at 1 h [3]: 0.000183 s⁻¹
CLr [4]: 18.9 L/h
kel [5]: 0.275 h⁻¹
AUC(0-inf) [6]: 31800 ng·h/mL
clearance [7]: 267 mL/min
Cmax [8]: 22100 ng/mL
Tmax [9]: 1.02 h
AUC [10]: 4030 ng·h/mL
Drug uptake [11]: 1.62%
Drug uptake [12]: 93.44%
Drug uptake [13]: 95.28%
Tmax [14]: 1.02 h
AUC [15]: 4980 ng·h/mL
AUC [16]: 20200 ng·h/mL
Drug uptake [17]: 0.9%
CL renal at 1 h [18]: 208 mL/min
AUC(0-t) at 1 h [19]: 31500 ng·h/mL
AUC [20]: 37500 ng·h/mL
Tmax [21]: 1.01 h
kel [22]: 0.438 h⁻¹
Cmax [23]: 1560 ng/mL
Drug uptake [24]: 85.13%
Drug uptake [25]: 0.72%
Drug uptake [26]: 6.69%
t1/2 [27]: 1.59 h
Tmax [28]: 1.02 h
t1/2 [29]: 2.54 h
AUC [30]: 39500 ng·h/mL
Cmax [31]: 13200 ng/mL
